Measurements published in US12084411B2, “Hinokitiol analogues, methods of preparing and pharmaceutical compositions thereof” (The Board of Trustees of the University of Illinois, priority 2018, dated 2024).
Entries after “also recorded” stand apart in the source; their conditions may differ.

Key:
[1] = Determination of small molecule iron binding (UV-Vis); settings: pH 7.0
Description: Small molecule iron (III) binding was determined by UV-Vis spectroscopy of small molecules (30 μM) before and after addition of FeCl3 (10 μM) or iron (III) citrate (10 μM, Sigma F3388) in 10 mM MES/Tris buffer at pH=7.0. Iron (II) binding was determined by UV-Vis spectroscopy of small molecules (30 μM) and FeCl2 (10 μM) in a 25 mM MES/Tris buffer at pH=7.0 containing 62.5 mM sodium ascorbate.

[2] = system: DMT1-deficient MEL cells; test: Live cell fluorescence imaging and flow cytometry of compartmentalized iron in MEL cells; format: cell-based, mouse; settings: for endosomal oxyburst green, cytosolic calcein green and mitochondrial RPA fluorescence: 1 μM
Description: To visualize cytosolic and mitochondrial iron, confocal imaging of calcein green and RPA fluorescence was performed, respectively. MEL cells were induced for differentiation as described above. […] The cells were incubated for an additional 2 hours, and then were centrifuged and rinsed with PBS. […] The cells were then incubated at 37° C. for 15 minutes. […] The cells were then imaged within 10 minutes on a LSM710 microscope. Relative calcein green and RPA fluorescence per cell was determined by ImageJ analysis using >100 cells per experiment. […] MEL cells were induced for differentiation as described above. […] The cells were incubated for an additional 2 hours, and then were centrifuged and rinsed with PBS. The cells were then re-suspended in DMEM-HEPES buffer, and H2O2 (50 mM final concentration) was added. The cells were incubated at room temperature, and the oxyburst green fluorescence was then determined 10 minutes after addition of H2O2 on a LSM710 microscope. Relative oxyburst green fluorescence per cell was determined by ImageJ analysis using >100 cells per experiment. […] Median fluorescence was then normalized to shDMT1 for each dye. […] Median fluorescence was then normalized to shDMT1 for each dye.

[3] = system: DMT1-deficient zebrafish; settings: two days; for hemoglobinization (GFP-positive erythroids): 1 μM in water from 24 hpf; for number of fish with high hemoglobin levels (o-dianisidine): heterozygous cross of +/cdy fish
Description: The morpholinos (MOs) were purchased from GeneTools, LLC (Philomath, OR). The sequences of the MO used were as follows: dmt1 MO: 5′-[…]-3′; mfrnl MO: 5′-[…]-3′. Zebrafish embryos at the 1-cell stage were injected with MOs as previously described (72, 78). o-dianisidine staining for hemoglobinized cells in embryos was as previously described (79). Quantification by flow cytometry using fluorescently labeled erythrocytes from the transgenic Tg(globinLCR:eGFP) line (50) was performed as previously described (72, 75). Semi-quantitative RT-PCR of dmt1 mRNA in morphants was performed using custom designed probes as previously described (80). The sequences of the dmt1 primers are as follows: 5′-[…]-3′ (Fwd); 5′-[…]-3′ (Rev). The sequences of the control actb primers were as follows: 5′-[…]-3′ (Fwd); 5′-[…]-3′ (Rev).
Either mutant or morphant embryos were allowed to develop to >24 hours post fertilization (hpf), then dechorionated with pronase as previously described (81). The dechorionated embryos or morphants were then incubated in the presence of 1 μM hinokitiol (or vehicle) and 10 μM iron (III) citrate for an additional forty-eight hours. Vehicle treated embryos were exposed to […]. C2deOHino (1 μM) with iron (III) citrate (10 μM) was used as a negative control. Control and either mutant or morphant embryos at ˜72 hpf were either (a) directly stained by o-dianisidine (79) or (b) mechanically homogenized as previously described for flow cytometry (75, 78).

[4] = system: J774 macrophages; test: Temporal imaging of cytosolic iron levels in J774 macrophages; format: cell-based, mouse; settings: for calcein green fluorescence after reversal of the gradient: external FeCl3 100 μM at t=12 min; for calcein green fluorescence after small molecule addition: iron-loaded cells, 100 μM small molecule at t=5 min
Description: To assess for the capacity for hinokitiol to reversibly and autonomously transport iron across the plasma membrane through the creation of artificial iron gradients, J774 macrophages were grown in Ibidi dishes (Ibidi NC0723624) to ˜80% confluency before incubation with J774 Complete media containing 5 mM ascorbic acid and 200 μM FeSO4. The cells were incubated for 1.5 hours, media was aspirated, and the cells were rinsed with PBS. The cells were then incubated with calcein green-AM (1 μM) in DMEM for 20 minutes at 37° C. The media was aspirated and cells were rinsed (×2) with PBS before DMEM (pH=7.4 in 10 mM HEPES) and 1 mM probenecid (Sigma P8761) was added. Calcein green fluorescence was then imaged on a LSM880 microscope at 37° C. with 5% CO2 at the indicated time points for 30 minutes. Hinokitiol (100 μM final concentration), C2deOHino (100 μM final concentration), or DMSO (all from 1000X stocks in 50 μL DMEM) were added at 5 minutes, and a solution of FeCl3 (100 μM final concentration, in 50 μL DMEM) was added at 12 minutes. Fluorescence in each image at each time point was analyzed by ImageJ analysis then normalized to the fluorescence at t=0 for each image using >100 cells per experiment.

[5] = system: FPN-deficient mice; test: Acute injection of hinokitiol in flatiron mice, tissue iron; format: in vivo; settings: 4 hours
Description: FIGS. 26A-26E show the results of acute injection of Hinokitiol in flatiron mice. Wild-type (+/+) and I (ffe/+) mice were administered hinokitiol by IP injection and were sacrificed after 4 h to measure iron content. (A) presents means f SEM (n=48/group). (B)-(E) present means±SEM (n=2/group). * P≤0.05, ** P≤0.005, and *** P≤0.001.
To characterize the effects of hinokitiol on iron mobilization and distribution in flatiron mice, hinokitiol was administered with increasing doses (1-50 mg/kg) via intraperitoneal (IP) injection. Mice were euthanized 4 hours post-administration, and blood and a range of tissues were collected. […] Total iron in a variety of tissues including liver and spleen was further measured by inductively coupled plasma mass spectrometry (ICP-MS).

[6] = Metal efflux from liposomes using PhenGreen; format: biochemical
Description: Hinokitiol-promoted release of different divalent metals from POPC liposomes was performed by tracking the quenching of PhenGreen (Fisher P14312) similar to previously reported (67, 68). […] In all cases, liposomes were prepared using 5 mM of either FeCl2, MnCl2, CoCl2, NiCl2, ZnCl2, or CuCl2 added to the internal buffer. […] The liposome suspension was diluted to 1 mM of phosphorus. The liposome suspension was transferred to a 96-well plate, and either DMSO or 2 μM hinokitiol (from a 40X stock in DMSO) was added at t=2 min. […] After one hour, the liposomes were lysed with Triton-X and the fluorescence was recorded. […] The DMSO-treated and hinokitiol-treated liposomes had similar fluorescence quenching levels after lysis. […] The t1/2 values were calculated using an asymptotic fit in OriginPro. The t1/2 values indicate the time required to reach half of the maximum metal efflux for each metal.

[7] = DMT1-deficient morphant zebrafish

SMILES | iron binding [1] | endosomal oxyburst green, cytosolic calcein green and mitochondrial RPA fluorescence [2] | hemoglobinization (GFP-positive erythroids) [3, 7] | number of fish with high hemoglobin levels (o-dianisidine) [3] | calcein green fluorescence after reversal of the gradient [4] | calcein green fluorescence after small molecule addition [4] | decrease of oxyburst green fluorescence ([2]; hinokitiol 1 μM) [fold] | observable toxicity ([3]; DMT1-deficient morphant zebrafish, 1 μM) | liver total iron (ICP-MS) ([5]; 10 mg/kg IP) | liver non-heme iron ([5]; 1-50 mg/kg IP) | non-heme iron in other tissues ([5]; IP) | Cu^II transport rate relative to Fe^II in liposomes [6] [fold]
CC(C)c1cccc(=O)cc1 [C2deOHino, C2-deoxy hinokitiol] | does not bind iron; also recorded: cannot bind or transport iron | no effect | no effect | no effect | no effect | no effect |  |  |  |  |  | 
CC(C)c1cccc(=O)c(O)c1 [hinokitiol] | binds iron (III) | decreases endosomal oxyburst green fluorescence and quenches calcein green and RPA fluorescence | promoted hemoglobinization | increased the number of fish exhibiting high hemoglobin levels | quenching of calcein green fluorescence was observed | rapidly increased calcein green fluorescence | 2.1 | without observable toxicity | releases iron from the liver | dose-dependent decrease | suggestive of reductions in non-heme iron | 80
